Experiments:
[1] = approximate acute toxicity (LD50); settings: in vivo, po; mouse, per os, single administration of increasing doses, measured on the seventh day after treatment
Experimental: In view of their high therapeutic index, the compounds of the invention can be used safely in medicine. For example, the approximate acute toxicity (LD50) of the compounds 2-(3-pyridyl)-5-oxo-5H-1,3,4-thiadiazolo[3,2-a]pyrimidine-6-N-(2-pyridyl)-carboxamide and 5-oxo-5H-1,3,4-thiadiazolo[3,2-a]pyrimidine-6-N-(2-pyridyl)-carboxamide in the mouse, determined by single administration of increasing doses and measured on the seventh day after treatment, is higher than 800 mg/kg per os. Analogous toxicity data have been found for other compounds of the invention.

mice = assay: phenylquinone test in mice (analgesic activity); assay type: in vivo; settings: 50 mg/kg, oral administration
Experimental: The analgesic activity was assessed, for example, by means of the phenylquinone test in mice according to Siegmund: [Siegmund et al. Proc. Soc. Exper. Biol. Med. 95, 729 (1957)]. In this test the compound FCE 22914, for example, gives a 30% inhibition at 50 mg/kg after oral administration. It is known that certain thiadiazolo-pyrimidine derivatives are endowed with anti-allergic and anti-asthma activity, e.g. those described in Published Japan Patent Application No. J57 142989, but such compounds are devoid of any anti-inflammatory and/or analgesic activity.

[2] = test system: Reversed Passive Arthus Reaction (RPAR) in rat paw; assay: Reversed Passive Arthus Reaction (RPAR) in rat paw; assay type: in vivo; settings: oral administration, approximate ED50, read-out: Anti-inflammatory activity, RPAR reaction, ED50
Text: (§1) The hydroxy protecting groups, for instance, may be removed by mild reaction conditions, e.g. acid hydrolysis.
(B) the Reversed Passive Arthus Reaction (RPAR) in rat paw, induced by the interaction of antigen and antibody resulting in the formation of precipitating immune complex, followed by fixation of complement and accumulation of polymorphonuclear leucocytes at a focal point (D. K. Gemmell, J. Cottney and A. J. Lewis, Agents and Actions 9/1 pag. 107, 1979).
(§2) The following Tables I and II show, for example, the approximate ED50 values of the anti-inflammatory activity in the above mentioned tests, in the rat after oral administration, for a compound of this invention: 2-(3-pyridyl)-5-oxo-5H-1,3,4-thiadiazolo[3,2-a]pyrimidine-6-N-(2-pyridyl)-carboxamide (internal code FCE 22914): […]

[3] = test system: edema formation in the hind paw; assay: Carrageenin induced oedema (edema formation in the hind paw of rats); assay type: in vivo; settings: rat, oral administration; approximate ED50; read-out: Anti-inflammatory activity, Carrageenin induced oedema, ED50
Text: as §1
(A) the edema formation in the hind paw of rats in response to a subplantar injection of carrageenin, according to the method of C. A. Winter et al. (J. Pharmac. Exp. Therap. 1963, 141, 369) and P. Lence (Arch. Int. Pharmacodyn., 1962, 136, 237), and
as §2

Compound | LD50 at 168 h [1] [mg/kg] | inhibition in phenylquinone test (analgesic activity) (mice) [%] | ED50 [2] [mg/kg] | ED50 [3] [mg/kg]
O=C(Nc1ccccn1)c1cnc2scnn2c1=O [5-oxo-5H-1,3,4-thiadiazolo[3,2-a]pyrimidine-6-N-(2-pyridyl)-carboxamide] | > 800 | – | – | –
O=C(Nc1ccccn1)c1cnc2sc(-c3cccnc3)nn2c1=O [FCE 22914, 2-(3-pyridyl)-5-oxo-5H-1,3,4-thiadiazolo[3,2-a]pyrimidine-6-N-(2-pyridyl)-carboxamide] | > 800 | 30 | 85.2 | 45.9

Source: US4522944A, “Carboxamido-derivatives of 5H-1,3,4-thiadiazolo[3,2-a]pyrimidines, compositions and use” (priority 1982, dated 1985)
